Assay results reported in EPA's ToxValDB 9.5.
Several values for one entry are separate records, joined by “and”; a condition that tells them apart may be missing. Identical values can stand only once.

Key:
Rattus norvegicus [1] = settings: uterotrophic; duration: 3 days; injection; subcutaneous; Active
Rattus norvegicus [2] = system: Rattus norvegicus
Danio rerio = settings: whole body
Rattus norvegicus [3] = settings: subchronic; oral; gavage; M; Sprague-Dawley; Clinical Observation: Salivation Perioral smudge + Body Weight Changes: Gain decrease + Food Consumption: decrease + Hematology: RBC …
[4] = reproduction developmental, duration: 4 days, oral, gavage, F, Sprague-Dawley, generation: P0, P0: dam body weight gain
[5] = short-term, duration: 3 days, injection, subcutaneous, F, Sprague-Dawley, uterus: absolute blotted uterine weight in the presence of EE
[6] = short-term, duration: 10 days, oral, gavage, M, BrlHan:WIST, body weight + male accessory sex gland: BC/LA weight (relative)
[7] = short-term, duration: 10 days, oral, gavage, M, BrlHan:WIST, male accessory sex gland: glans penis weight (relative)
[8] = short-term, duration: 10 days, oral, gavage, M, BrlHan:WIST, male accessory sex gland: relative bulbourethral gland weight in the presence of TP + penis: relative penis weight in the absence of TP
[9] = short-term, duration: 14 days, oral, gavage, M, Sprague-Dawley, body weight + serum LH + serum TCHO
[10] = short-term, duration: 14 days, oral, gavage, M, Sprague-Dawley, serum FSH
[11] = short-term, duration: 14 days, oral, gavage, M, Sprague-Dawley, serum T + testis: testis/body weight
[12] = short-term, duration: 28 days, oral, gavage, F, Sprague-Dawley, body weight
[13] = short-term, duration: 28 days, oral, gavage, F, Sprague-Dawley, heart: heart weight + thymus: serum T4
[14] = short-term, duration: 28 days, oral, gavage, M, Sprague-Dawley, adrenal gland: hypertrophy of zona fasciculata + body weight + heart: heart weight + liver: decreased hepatocytic glycogen + liver: liver …
[15] = chronic, duration: 120 days, F, AB-type, E2 + E2:T ratio + gene expression
[16] = chronic, duration: 120 days, M/F, AB-type, fertilization rate + malformation rate + survival rate
[17] = chronic, duration: 120 days, M, AB-type, E2 + E2:T ratio + gene expression + liver: vtg1 expression + T
[18] = developmental, duration: 21 days, M/F, developmental lesion
[19] = short-term, duration: 28 days, F, VTG expression
[20] = short-term, duration: 28 days, F, thymus: Free T3

Structure (SMILES): Oc1ccc(C(c2ccc(O)cc2)(C(F)(F)F)C(F)(F)F)cc1 [Bisphenol AF]
- LEL (Rattus norvegicus [1]): 4 mg/kg-day and 8 mg/kg-day and 4.04 mg/kg-day
- LOEL (Rattus norvegicus [2]; [4]): 400 mg/kg-day
- NOEL (Rattus norvegicus [2]; [4]): 300 mg/kg-day
- NOEL (Rattus norvegicus [2]; short-term, duration: 3 days, injection, subcutaneous, F, Crj:CD, body weight): 100 mg/kg-day
- LOEL (Rattus norvegicus [2]; short-term, duration: 3 days, injection, subcutaneous, F, Crj:CD, uterus: uterine dry weight (absolute) + uterus: uterine dry weight (relative)): 8 mg/kg-day
- NOEL (Rattus norvegicus [2]; short-term, duration: 3 days, injection, subcutaneous, F, Sprague-Dawley, body weight in the absence of EE + body weight in the presence of EE): 100 mg/kg-day
- LOEL (Rattus norvegicus [2]; short-term, duration: 3 days, injection, subcutaneous, F, Sprague-Dawley, uterus: absolute blotted uterine weight in the absence of EE + uterus: relative blotted uterine weight in the absence of EE + uterus: …): 4 mg/kg-day
- LOEL (Rattus norvegicus [2]; [5]): 20 mg/kg-day
- NOEL (Rattus norvegicus [2]; [5]): 4 mg/kg-day
- LOEL (Rattus norvegicus [2]; [6]): 200 mg/kg-day
- NOEL (Rattus norvegicus [2]; [6]): 50 mg/kg-day
- NOEL (Rattus norvegicus [2]; short-term, duration: 10 days, oral, gavage, M, BrlHan:WIST, male accessory sex gland: Cowper's gland weight (relative) + male accessory sex gland: seminal vesicle weight (relative) + male accessory …): 600 mg/kg-day
- LOEL (Rattus norvegicus [2]; [7]): 600 mg/kg-day
- NOEL (Rattus norvegicus [2]; [7]): 200 mg/kg-day
- NOEL (Rattus norvegicus [2]; short-term, duration: 10 days, oral, gavage, M, BrlHan:WIST, male accessory sex gland: relative bulbourethral gland weight in the absence of TP + male accessory sex gland: relative seminal vesicle …): 600 mg/kg-day
- LOEL (Rattus norvegicus [2]; [8]): 600 mg/kg-day
- NOEL (Rattus norvegicus [2]; [8]): 200 mg/kg-day
- LOEL (Rattus norvegicus [2]; short-term, duration: 10 days, oral, gavage, M, BrlHan:WIST, male accessory sex gland: relative seminal vesicle weight in the presence of TP + penis: relative penis weight in the presence of TP): 50 mg/kg-day
- LOEL (Rattus norvegicus [2]; [9]): 50 mg/kg-day
- NOEL (Rattus norvegicus [2]; [9]): 10 mg/kg-day
- LOEL (Rattus norvegicus [2]; [10]): 10 mg/kg-day
- NOEL (Rattus norvegicus [2]; [10]): 2 mg/kg-day
- LOEL (Rattus norvegicus [2]; [11]): 200 mg/kg-day
- NOEL (Rattus norvegicus [2]; [11]): 50 mg/kg-day
- NOEL (Rattus norvegicus [2]; short-term, duration: 14 days, oral, gavage, M, Sprague-Dawley, testis: testis weight): 200 mg/kg-day
- NOEL (Rattus norvegicus [2]; short-term, duration: 28 days, oral, gavage, F, Sprague-Dawley, adrenal gland: hypertrophy of zona fasciculata + bone marrow: decreased hematopoiesis + brain: brain weight + liver: decreased hepatocytic …): 100 mg/kg-day
- LOEL (Rattus norvegicus [2]; [12]): 30 mg/kg-day
- NOEL (Rattus norvegicus [2]; [12]): 10 mg/kg-day
- LOEL (Rattus norvegicus [2]; [13]): 100 mg/kg-day
- NOEL (Rattus norvegicus [2]; [13]): 30 mg/kg-day
- NOEL (Rattus norvegicus [2]; short-term, duration: 28 days, oral, gavage, M, Sprague-Dawley, adrenal gland: adrenals weight + bone marrow: decreased hematopoiesis + brain: brain weight + spleen: decreased extramedullary hematopoiesis…): 100 mg/kg-day
- LOEL (Rattus norvegicus [2]; [14]): 100 mg/kg-day
- NOEL (Rattus norvegicus [2]; [14]): 30 mg/kg-day
- LOEL (Danio rerio; [15]): 0.125 mg/L
- NOEL (Danio rerio; [15]): 0.025 mg/L
- LOEL (Danio rerio; [16]): 0.125 mg/L
- NOEL (Danio rerio; [16]): 0.025 mg/L
- LOEL (Danio rerio; chronic, duration: 120 days, M/F, AB-type, hatchability): 0.005 mg/L
- LOEL (Danio rerio; [17]): 0.025 mg/L
- NOEL (Danio rerio; [17]): 0.005 mg/L
- LOEL (Danio rerio; [18]): 1.5 mg/L
- NOEL (Danio rerio; [18]): 1 mg/L
- LOEL (Danio rerio; short-term, duration: 21 days, M/F, vitellogenin): 0.5 mg/L
- LOEL (Danio rerio; [19]): 0.25 mg/L
- NOEL (Danio rerio; [19]): 0.05 mg/L
- LOEL (Danio rerio; short-term, duration: 28 days, F, condition factor): 0.05 mg/L
- LOEL (Danio rerio; [20]): 1 mg/L
- NOEL (Danio rerio; [20]): 0.25 mg/L
- LOEL (Danio rerio; short-term, duration: 28 days, M, 17beta-estradiol + VTG expression): 1 mg/L
- NOEL (Danio rerio; short-term, duration: 28 days, M, VTG expression): 0.25 mg/L
- NOEL (Danio rerio; short-term, duration: 28 days, M, body weight + length): 0.05 mg/L
- LOEL (Danio rerio; short-term, duration: 28 days, M, body weight + length + T): 0.25 mg/L
- NOEL (Rattus norvegicus [3]): < 30 mg/kg-day
